We go through 18 compounds from patent US10039753B2, “Imidazo[4,5-c]quinoline and imidazo[4,5-c][1,5]naphthyridine derivatives as LRRK2 inhibitors” (Pfizer Inc., priority 2015, dated 2018).

Test [1] addresses T1, mutant G2019S LRRK2 (Homo sapiens, UniProt Q5S007, G2019S). Put plainly: LRRK2 Assay, Format 1 (Lantha Screen), G2019S mutant.
For test [2], the target named is T2, GST-tagged truncated LRRK2 (Homo sapiens, UniProt Q5S007).
T2 construct: GST-tagged truncated LRRK2 from Invitrogen (Cat # PV4874); GST; purchased Invitrogen PV4874
T2 sequence (Q5S007 970-2527 limits assumed): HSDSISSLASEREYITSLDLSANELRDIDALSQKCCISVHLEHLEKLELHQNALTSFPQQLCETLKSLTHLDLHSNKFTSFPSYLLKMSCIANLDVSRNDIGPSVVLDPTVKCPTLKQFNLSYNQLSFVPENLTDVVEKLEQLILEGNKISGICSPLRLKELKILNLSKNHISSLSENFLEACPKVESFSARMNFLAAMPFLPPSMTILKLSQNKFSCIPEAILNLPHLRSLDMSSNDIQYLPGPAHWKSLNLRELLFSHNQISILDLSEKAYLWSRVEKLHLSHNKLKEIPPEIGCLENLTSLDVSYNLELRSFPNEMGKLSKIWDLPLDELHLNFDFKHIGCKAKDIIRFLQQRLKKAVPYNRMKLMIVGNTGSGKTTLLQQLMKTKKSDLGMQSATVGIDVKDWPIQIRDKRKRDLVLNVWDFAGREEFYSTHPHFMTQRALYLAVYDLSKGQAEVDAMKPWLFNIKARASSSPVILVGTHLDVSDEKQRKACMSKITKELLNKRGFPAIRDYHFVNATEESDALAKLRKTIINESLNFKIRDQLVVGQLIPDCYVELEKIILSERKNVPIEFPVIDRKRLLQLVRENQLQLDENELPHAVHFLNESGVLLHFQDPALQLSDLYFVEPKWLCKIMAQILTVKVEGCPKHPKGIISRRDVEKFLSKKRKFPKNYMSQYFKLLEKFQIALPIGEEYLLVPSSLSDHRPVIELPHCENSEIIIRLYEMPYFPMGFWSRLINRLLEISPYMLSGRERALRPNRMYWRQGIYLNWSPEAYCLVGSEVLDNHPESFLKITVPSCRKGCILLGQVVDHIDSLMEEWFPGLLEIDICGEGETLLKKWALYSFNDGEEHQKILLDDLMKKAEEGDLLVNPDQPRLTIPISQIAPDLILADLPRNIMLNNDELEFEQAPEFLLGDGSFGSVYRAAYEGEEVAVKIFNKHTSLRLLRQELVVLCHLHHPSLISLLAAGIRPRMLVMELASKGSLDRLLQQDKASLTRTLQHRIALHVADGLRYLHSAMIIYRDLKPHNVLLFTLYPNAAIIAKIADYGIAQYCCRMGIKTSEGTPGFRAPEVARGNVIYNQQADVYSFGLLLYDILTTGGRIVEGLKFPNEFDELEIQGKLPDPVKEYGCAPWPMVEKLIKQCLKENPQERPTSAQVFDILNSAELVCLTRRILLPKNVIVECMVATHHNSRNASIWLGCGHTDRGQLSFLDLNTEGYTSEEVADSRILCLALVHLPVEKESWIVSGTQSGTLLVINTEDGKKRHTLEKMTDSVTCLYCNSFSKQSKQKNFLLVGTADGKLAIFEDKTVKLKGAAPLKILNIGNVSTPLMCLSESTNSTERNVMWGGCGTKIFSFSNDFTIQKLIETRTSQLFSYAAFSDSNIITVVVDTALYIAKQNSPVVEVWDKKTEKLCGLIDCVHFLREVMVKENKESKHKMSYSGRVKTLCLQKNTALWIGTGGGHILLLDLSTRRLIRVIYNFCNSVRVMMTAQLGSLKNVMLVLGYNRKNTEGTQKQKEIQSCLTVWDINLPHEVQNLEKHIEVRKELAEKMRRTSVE
Put plainly: LRRK2 Assay, Format 2 (Lantha Screen), WT. The test is classed as biochemical.

The target of test [3] is T1, mutant G2019S LRRK2. Description: LRRK2 Assay, Format 2 (Lantha Screen), G2019S mutant. Format: biochemical. Further details: purchased Invitrogen PV4881.
For test [4], the target named is T2, GST-tagged truncated LRRK2. Description: LRRK2 Assay, Format 1 (Lantha Screen), WT. The test is classed as biochemical. The essentials:
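Kinase activity measured by TR-FRET: GST-tagged truncated LRRK2 (4 μg/mL working solution) reacted with fluorescein-labeled LRRKtide (ERM-based peptide) across a compound dose response for 2 h at room temperature. Reaction stopped with EDTA-containing detection buffer (20 mM Tris pH 7.6) holding 2 nM terbium anti-phospho-ERM antibody.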

The mark [5] stands for this setting: 100 nM LRRKtide, 50 μM ATP, 1.7 μg/mL LRRK2 enzyme, two hours at room temperature.
Where [6] appears, read: geometric mean of 2-4 determinations unless otherwise indicated (a: >=5; b: single determination).
Setting [7] is: geometric mean of 2-4 determinations unless otherwise indicated (a: >=5; b: single determination), read-out: LRRK2, Format 2 G2019S IC50.
Where [8] appears, read: geometric mean of 2-4 determinations unless otherwise indicated.

T1 sequence (Q5S007 970-2527 G2019S limits assumed): as the sequence (Q5S007 970-2527 limits assumed) above, with G1050S counted along it

On to `Cc1nc(Cc2nc3cnc4ccc(Cl)cc4c3n2C2C[C@@H](C)[C@@H](F)C2)no1` (mixture of isomers) [diastereomer of Example 136, 8-chloro-1-[rel-(3S,4R)-3-fluoro-4-methylcyclopentyl]-2-[(5-methyl-1,2,4-oxadiazol-3-yl)methyl]-1H-imidazo[4,5-c]quinoline, DIAST-2], for which the IC50 in test [1] came out at 0.105 µM; in test [2] (100 nM LRRKtide, 1000 mM ATP (so in the source), 30 minutes at room temperature), 0.0632 µM; in test [3] (100 nM LRRKtide, 1000 mM ATP (so in the source), 30 minutes at room temperature, read-out: LRRK2, Format 2 G2019S mutant IC50), 0.0692 µM; in test [4] (setting [5]), 0.156 µM.

In the case of `Cc1nc(Cc2nc3cnc4ccc(Cl)cc4c3n2C2C[C@@H](C)[C@@H](F)C2)no1` (single isomer, unassigned) [Example 136], the IC50 worked out at 0.0247 µM in test [1], 0.012 µM in test [2] (setting [6]), 0.013 µM in test [3] (setting [7]) and 0.0301 µM in test [4] (setting [8]).

For the compound `Cc1cc(Cc2nc3cnc4ccc(Cl)cc4c3n2[C@@H]2CCO[C@H](CC#N)C2)no1` (single isomer, unassigned; ent-1) [Example 134, [cis-4-{8-chloro-2-[(5-methyl-1,2-oxazol-3-yl)methyl]-1H-imidazo[4,5-c]quinolin-1-yl}tetrahydro-2H-pyran-2-yl]acetonitrile, ENT-1], the IC50 in test [1] worked out at 0.00378 µM; in test [2] (setting [6]), 0.00768 µM; in test [3] (setting [7]), 0.00778 µM; in test [4] (setting [8]) it was 0.00348 µM.

Take `Cc1nc(Cc2nc3cnc4ccc(Cl)cc4c3n2[C@@H]2CCO[C@H](CC#N)C2)no1` (single isomer, unassigned; ent-1) [Example 135, [cis-4-{8-chloro-2-[(5-methyl-1,2,4-oxadiazol-3-yl)methyl]-1H-imidazo[4,5-c]quinolin-1-yl}tetrahydro-2H-pyran-2-yl]acetonitrile, ENT-1]: the IC50 in test [1] is 0.00365 µM; in test [2] (setting [6]), 0.016 µM; in test [3] (setting [7]), 0.0155 µM; in test [4] (setting [8]), 0.00378 µM.

For `C[C@@H]1C[C@H](n2c(Cc3cc(C4CC4)on3)nc3cnc4ccc(C#N)cc4c32)CCO1` [Example 145, 2-[(5-cyclopropyl-1,2-oxazol-3-yl)methyl]-1-[(2R,4R)-2-methyltetrahydro-2H-pyran-4-yl]-1H-imidazo[4,5-c]quinoline-8-carbonitrile], the IC50 is 0.0048 µM in test [1], 0.00698 µM in test [2] (setting [6]), 0.00733 µM in test [3] (setting [7]) and 0.00478 µM in test [4] (setting [8]).

With `CC(C)c1cc(Cc2nc3cnc4ccc(Br)cc4c3n2[C@@H]2CCO[C@H](C)C2)no1` [Example 171, 8-bromo-1-[(2R,4R)-2-methyltetrahydro-2H-pyran-4-yl]-2-{[5-(propan-2-yl)-1,2-oxazol-3-yl]methyl}-1H-imidazo[4,5-c]quinoline], the IC50 in test [1] was determined as 0.0159 µM; in test [2] (setting [6]), 0.0052 µM; in test [3] (setting [7]), 0.00535 µM; in test [4] (setting [8]), 0.0171 µM.

Take `C[C@@H]1C[C@H](n2c(Cc3cc(C4CC4)on3)nc3cnc4ccc(Br)cc4c32)CCO1` [Example 172, 8-bromo-2-[(5-cyclopropyl-1,2-oxazol-3-yl)methyl]-1-[(2R,4R)-2-methyltetrahydro-2H-pyran-4-yl]-1H-imidazo[4,5-c]quinoline]: the IC50 in test [1] was 0.00917 µM; in test [2] (setting [6]), 0.006 µM; in test [3] (setting [7]), 0.00634 µM; in test [4] (setting [8]), 0.0144 µM.

For `Cc1cn(Cc2nc3cnc4ccc(Br)cc4c3n2[C@@H]2CCO[C@H](C)C2)nn1` [Example 173, 8-bromo-1-[(2R,4R)-2-methyltetrahydro-2H-pyran-4-yl]-2-[(4-methyl-1H-1,2,3-triazol-1-yl)methyl]-1H-imidazo[4,5-c]quinoline], the IC50 was determined as 0.00362 µM in test [1], 0.0067 µM in test [2] (setting [6]), 0.00672 µM in test [3] (setting [7]) and 0.00514 µM in test [4] (setting [8]).

For `C[C@@H]1C[C@@H](n2c(Cc3ccon3)nc3cnc4ccc(C#N)cc4c32)CCO1` [enantiomer of Example 24, 1-[(2R,4S)-2-methyltetrahydro-2H-pyran-4-yl]-2-(1,2-oxazol-3-ylmethyl)-1H-imidazo[4,5-c]quinoline-8-carbonitrile], the values for the IC50 in test [1] and in test [4] (setting [5]) were 0.134 µM and 0.267 µM, respectively.

For the compound `C[C@H]1C[C@@H](n2c(Cc3ccon3)nc3cnc4ccc(F)cc4c32)CCO1` [enantiomer of Example 54, 8-fluoro-1-[(2S,4S)-2-methyltetrahydro-2H-pyran-4-yl]-2-(1,2-oxazol-3-ylmethyl)-1H-imidazo[4,5-c]quinoline], the IC50 in test [1] is 0.236 µM; in test [4] (setting [5]), 0.332 µM.

On to `C[C@H]1C[C@@H](n2c(Cc3cscn3)nc3cnc4ccc(C#N)cc4c32)CCO1` [enantiomer of Example 57, 1-[(2S,4S)-2-methyltetrahydro-2H-pyran-4-yl]-2-(1,3-thiazol-4-ylmethyl)-1H-imidazo[4,5-c]quinoline-8-carbonitrile], for which the IC50 in test [1] came to 0.196 µM; in test [4] (setting [5]) it was 0.382 µM.

As for `COc1ccc2ncc3nc(Cc4ccon4)n([C@H]4CCO[C@@H](C)C4)c3c2c1` [enantiomer of Example 62, 8-methoxy-1-[(2S,4S)-2-methyltetrahydro-2H-pyran-4-yl]-2-(1,2-oxazol-3-ylmethyl)-1H-imidazo[4,5-c]quinoline], the 50% inhibitory concentration (IC50) was 0.508 µM in test [1] and 1.71 µM in test [4] (setting [5]).

As for `C[C@H]1C[C@@H](n2c(Cn3cncn3)nc3cnc4ccc(Cl)cc4c32)CCO1` [enantiomer of Example 65, 8-chloro-1-[(2S,4S)-2-methyltetrahydro-2H-pyran-4-yl]-2-(1H-1,2,4-triazol-1-ylmethyl)-1H-imidazo[4,5-c]quinoline], the IC50 in test [1] turned out to be 0.241 µM; in test [4] (setting [5]) it was 0.687 µM.

Regarding `CC[C@H]1C[C@@H](n2c(Cc3ccon3)nc3cnc4ccc(C#N)cc4c32)CCO1` [enantiomer of Example 67, 1-[(2S,4S)-2-ethyltetrahydro-2H-pyran-4-yl]-2-(1,2-oxazol-3-ylmethyl)-1H-imidazo[4,5-c]quinoline-8-carbonitrile], the IC50 in test [1] was 0.403 µM; in test [4] (setting [5]), 0.699 µM.

`C[C@H]1C[C@@H](n2c(Cc3ccon3)nc3cnc4cccnc4c32)CCO1` [enantiomer of Example 68, 1-[(2 S,4S)-2-methyltetrahydro-2H-pyran-4-yl]-2-(1,2-oxazol-3-ylmethyl)-1H-imidazo[4,5-c][1,5]naphthyridine]: the IC50 was determined as 0.632 µM in test [1] and 0.853 µM in test [4] (setting [5]).

Consider `COc1ccc2ncc3nc(Cc4noc(C)n4)n([C@H]4CCO[C@@H](C)C4)c3c2c1` [enantiomer of Example 87, 8-methoxy-2-[(5-methyl-1,2,4-oxadiazol-3-yl)methyl]-1-[(2S,4S)-2-methyltetrahydro-2H-pyran-4-yl]-1H-imidazo[4,5-c]quinoline], for which the IC50 in test [1] came to 0.929 µM; in test [4] (setting [5]), 2.85 µM.

As to `COc1ccc2ncc3nc(Cn4cc(C)nn4)n([C@H]4CCO[C@@H](C)C4)c3c2c1` [enantiomer of Example 88, 8-methoxy-1-[(2S,4S)-2-methyltetrahydro-2H-pyran-4-yl]-2-[(4-methyl-1H-1,2,3-triazol-1-yl)methyl]-1H-imidazo[4,5-c]quinoline], the IC50 was found to be 0.372 µM in test [1] and 1.05 µM in test [4] (setting [5]).

In the case of `COc1ccc2ncc3nc(Cc4cn5ncsc5n4)n([C@H]4CCO[C@@H](C)C4)c3c2c1` [enantiomer of Example 90, 2-(imidazo[2,1-b][1,3,4]thiadiazol-6-ylmethyl)-8-methoxy-1-[(2S,4S)-2-methyltetrahydro-2H-pyran-4-yl]-1H-imidazo[4,5-c]quinoline], the 50% inhibitory concentration (IC50) in test [1] worked out at 0.245 µM; in test [4] (setting [5]) it was 0.623 µM.

One may read the IC50 as the concentration at which inhibition is half-maximal.
